Assay in all cases: Protein kinase assay
The target of one assay is CDK1/cyclin B. The format is biochemical, starfish. As to conditions: 15 μmol/L ATP.
A further assay addresses TgCLK (Toxoplasma gondii, UniProt V4ZJD6). Type of assay: biochemical. The following applies: 15 μmol/L ATP; read-out: IC50 TgCLK.
The target of a further assay is T1, CDK5/p25 (Homo sapiens, UniProt Q00535).
T1 construct: made in house
The format is biochemical.

In another assay the target is CDK9/cyclin T (Homo sapiens, UniProt P50750). The following applies: IC50 CDK9/cyclin T, 15 μmol/L ATP.
The next assay addresses GSK-3α/β. The format is biochemical, porcine. As to conditions: 15 μmol/L ATP.
Another assay deals with DYRK1B (Homo sapiens, UniProt Q9Y463). The format is biochemical. As to conditions: 15 μmol/L ATP.
Another assay deals with DYRK1A (Homo sapiens, UniProt Q13627). Type of assay: biochemical. The following applies: 15 μmol/L ATP.
The next assay addresses CLK4 (Mus musculus, UniProt O35493). The following applies: IC50 CLK4, 15 μmol/L ATP.
The next assay addresses CpLAMMER (Cryptosporidium parvum, UniProt A3FQG5). Type of assay: biochemical. As to conditions: 15 μmol/L ATP; read-out: IC50 CpLAMMER.
The target in a further assay is TcCLK1 (Trypanosoma cruzi, UniProt Q4E3Z1). Type of assay: biochemical. The following applies: 15 μmol/L ATP; read-out: IC50 TcCLK1.
A further assay concerns the target TbCLK1 (Trypanosoma brucei brucei, UniProt Q382U0). Type of assay: biochemical. The following applies: 15 μmol/L ATP; read-out: IC50 TbCLK1.
The target of another assay is LmDYRK2 (Leishmania major, UniProt Q4Q405). The format is biochemical. The following applies: 15 μmol/L ATP; read-out: IC50 LmDYRK2.
In the next assay the target is PfCLK1 (Plasmodium falciparum, UniProt Q8IL19). The format is biochemical. The following applies: 15 μmol/L ATP; read-out: IC50 PfCLK1.
In another assay the target is LdDYRK4 (Leishmania donovani, UniProt A0A3Q8IC55). The format is biochemical. The following applies: 15 μmol/L ATP; read-out: IC50 LdDYRK4.
In a further assay the target is T2, PfGSK-3 (Plasmodium falciparum, UniProt O77344).
T2 sequence (O77344 1-440): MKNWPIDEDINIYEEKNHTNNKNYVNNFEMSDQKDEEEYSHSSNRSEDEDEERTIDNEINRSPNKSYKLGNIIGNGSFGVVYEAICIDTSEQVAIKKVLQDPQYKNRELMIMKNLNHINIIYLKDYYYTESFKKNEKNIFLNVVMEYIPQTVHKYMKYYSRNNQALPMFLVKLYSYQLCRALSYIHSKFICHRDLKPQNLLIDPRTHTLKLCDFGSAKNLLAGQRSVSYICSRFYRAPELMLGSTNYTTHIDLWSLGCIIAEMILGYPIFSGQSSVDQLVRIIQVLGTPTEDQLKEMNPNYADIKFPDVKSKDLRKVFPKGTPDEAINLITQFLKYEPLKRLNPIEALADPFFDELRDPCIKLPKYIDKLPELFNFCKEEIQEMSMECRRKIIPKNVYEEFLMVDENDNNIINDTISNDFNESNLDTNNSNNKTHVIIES
The format is biochemical. The following applies: 15 μmol/L ATP; read-out: IC50 PfGSK-3.

The target in another assay is GlCLK (Giardia intestinalis, UniProt A8BBY0). The format is biochemical. The following applies: 15 μmol/L ATP; read-out: IC50 GlCLK.
The target of a further assay is LdDYRK3 (Leishmania donovani, UniProt E9BS59). Type of assay: biochemical. The following applies: 15 μmol/L ATP; read-out: IC50 LdDYRK3.
In the next assay the target is LmCLK (Leishmania major, UniProt Q4QHY4). The format is biochemical. As to conditions: 15 μmol/L ATP; read-out: IC50 LmCLK.
In a further assay the target is LdDYRK1B (Leishmania donovani, UniProt E9BC59). The format is biochemical. As to conditions: 15 μmol/L ATP.
The next assay has as its target CLK2 (Mus musculus, UniProt O35491). As to conditions: IC50 CLK2, 15 μmol/L ATP.
The target of a further assay is CK1δ/ε. Type of assay: biochemical, porcine. The following applies: 15 μmol/L ATP. On the procedure:
CK1δ/ε (porcine brain, native) and LmCK1 (leishmania major, recombinant, expressed in E. coli as HIS fusion proteins) was assayed as described for CDK1 but in buffer C and using 25 μM CKS peptide ([…]pSAYSITA), a CK1-specific substrate.

For another assay, the target named is T3, CDK2/cyclin A (Homo sapiens, UniProt P24941).
T3 construct: made in house
The format is biochemical. As to conditions: 15 μmol/L ATP; read-out: IC50 CDK2/cyclin A.

For the next assay, the target named is CLK3 (Mus musculus, UniProt O35492). The following applies: IC50 CLK3, 15 μmol/L ATP.

Read-outs that look alike come from different tables or passages of the source.

LmCLK, sequence (Q4QHY4 entry or part of it): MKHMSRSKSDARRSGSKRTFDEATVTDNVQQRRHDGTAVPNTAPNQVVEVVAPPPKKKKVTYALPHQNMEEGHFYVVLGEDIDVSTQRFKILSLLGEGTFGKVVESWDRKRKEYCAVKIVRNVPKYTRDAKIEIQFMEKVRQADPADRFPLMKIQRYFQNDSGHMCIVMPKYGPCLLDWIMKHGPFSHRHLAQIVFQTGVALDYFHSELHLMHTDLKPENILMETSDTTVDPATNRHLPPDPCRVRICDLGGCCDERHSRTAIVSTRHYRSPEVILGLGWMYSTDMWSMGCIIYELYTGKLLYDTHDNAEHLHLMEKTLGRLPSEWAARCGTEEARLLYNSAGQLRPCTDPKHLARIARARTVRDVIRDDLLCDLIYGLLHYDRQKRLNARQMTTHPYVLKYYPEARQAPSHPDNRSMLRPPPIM
LdDYRK1B, sequence (E9BC59 1-745): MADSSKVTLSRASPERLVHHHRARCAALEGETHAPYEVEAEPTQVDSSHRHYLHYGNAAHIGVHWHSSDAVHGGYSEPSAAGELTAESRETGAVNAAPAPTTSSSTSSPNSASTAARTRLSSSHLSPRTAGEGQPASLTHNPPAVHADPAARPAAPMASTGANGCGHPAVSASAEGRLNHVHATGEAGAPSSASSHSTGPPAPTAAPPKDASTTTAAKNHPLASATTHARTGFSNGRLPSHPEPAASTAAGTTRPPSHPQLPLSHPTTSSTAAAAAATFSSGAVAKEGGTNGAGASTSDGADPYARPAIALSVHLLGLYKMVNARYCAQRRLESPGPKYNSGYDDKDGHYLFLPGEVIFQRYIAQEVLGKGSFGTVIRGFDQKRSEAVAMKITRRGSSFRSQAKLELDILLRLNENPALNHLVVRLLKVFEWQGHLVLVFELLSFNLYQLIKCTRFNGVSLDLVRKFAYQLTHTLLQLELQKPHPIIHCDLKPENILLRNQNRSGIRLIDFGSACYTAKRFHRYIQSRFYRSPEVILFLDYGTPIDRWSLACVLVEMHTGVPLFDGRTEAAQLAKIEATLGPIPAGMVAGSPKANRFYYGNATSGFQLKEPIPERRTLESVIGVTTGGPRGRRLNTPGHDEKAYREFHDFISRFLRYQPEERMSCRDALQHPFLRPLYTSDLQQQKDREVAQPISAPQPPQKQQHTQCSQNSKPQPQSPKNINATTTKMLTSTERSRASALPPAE
LdDYRK4, sequence (A0A3Q8IC55 entry or part of it): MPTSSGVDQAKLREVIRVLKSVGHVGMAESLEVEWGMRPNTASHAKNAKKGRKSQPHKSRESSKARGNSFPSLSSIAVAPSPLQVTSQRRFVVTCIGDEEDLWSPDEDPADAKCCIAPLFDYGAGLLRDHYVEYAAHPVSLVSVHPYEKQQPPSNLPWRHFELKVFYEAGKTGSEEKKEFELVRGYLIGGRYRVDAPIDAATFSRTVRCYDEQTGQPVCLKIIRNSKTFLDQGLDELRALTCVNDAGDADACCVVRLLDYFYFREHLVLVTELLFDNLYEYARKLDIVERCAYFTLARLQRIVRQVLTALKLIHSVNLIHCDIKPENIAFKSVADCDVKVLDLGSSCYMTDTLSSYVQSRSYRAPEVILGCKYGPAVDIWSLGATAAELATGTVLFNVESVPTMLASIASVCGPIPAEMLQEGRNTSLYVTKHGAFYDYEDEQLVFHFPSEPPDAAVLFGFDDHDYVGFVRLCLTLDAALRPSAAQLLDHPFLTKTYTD
DYRK1B, sequence (Q9Y463 whole entry): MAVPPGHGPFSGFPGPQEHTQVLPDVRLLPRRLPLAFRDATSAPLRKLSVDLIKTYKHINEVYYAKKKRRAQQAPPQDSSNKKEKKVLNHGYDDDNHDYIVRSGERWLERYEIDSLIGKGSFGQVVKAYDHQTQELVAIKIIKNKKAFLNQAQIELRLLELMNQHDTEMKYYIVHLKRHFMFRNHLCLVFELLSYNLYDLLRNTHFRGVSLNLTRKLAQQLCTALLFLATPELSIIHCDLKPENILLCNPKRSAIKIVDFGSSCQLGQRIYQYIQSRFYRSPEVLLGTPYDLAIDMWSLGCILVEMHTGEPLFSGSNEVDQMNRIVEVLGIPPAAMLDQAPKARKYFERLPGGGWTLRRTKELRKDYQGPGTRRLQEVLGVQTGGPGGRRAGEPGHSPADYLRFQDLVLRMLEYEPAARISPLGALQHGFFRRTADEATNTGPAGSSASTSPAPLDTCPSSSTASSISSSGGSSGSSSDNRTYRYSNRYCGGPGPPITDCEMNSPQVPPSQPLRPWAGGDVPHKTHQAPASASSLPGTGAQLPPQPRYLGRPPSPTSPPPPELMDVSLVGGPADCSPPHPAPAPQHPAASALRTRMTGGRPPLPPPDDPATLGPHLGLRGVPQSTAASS
GlCLK, sequence (A8BBY0 entry or part of it): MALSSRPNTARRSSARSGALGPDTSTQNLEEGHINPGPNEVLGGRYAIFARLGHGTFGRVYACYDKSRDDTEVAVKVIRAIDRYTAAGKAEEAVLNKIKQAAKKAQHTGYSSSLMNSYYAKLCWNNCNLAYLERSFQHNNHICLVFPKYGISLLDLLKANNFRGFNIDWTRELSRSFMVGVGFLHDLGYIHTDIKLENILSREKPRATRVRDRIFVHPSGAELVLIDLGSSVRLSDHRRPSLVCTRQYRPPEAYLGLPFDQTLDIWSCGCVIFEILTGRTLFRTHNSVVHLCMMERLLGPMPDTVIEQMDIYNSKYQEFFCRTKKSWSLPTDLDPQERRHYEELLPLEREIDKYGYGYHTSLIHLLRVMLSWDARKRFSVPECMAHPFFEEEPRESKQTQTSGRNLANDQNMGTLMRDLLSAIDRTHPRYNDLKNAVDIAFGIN
CLK3, sequence (O35492 whole entry): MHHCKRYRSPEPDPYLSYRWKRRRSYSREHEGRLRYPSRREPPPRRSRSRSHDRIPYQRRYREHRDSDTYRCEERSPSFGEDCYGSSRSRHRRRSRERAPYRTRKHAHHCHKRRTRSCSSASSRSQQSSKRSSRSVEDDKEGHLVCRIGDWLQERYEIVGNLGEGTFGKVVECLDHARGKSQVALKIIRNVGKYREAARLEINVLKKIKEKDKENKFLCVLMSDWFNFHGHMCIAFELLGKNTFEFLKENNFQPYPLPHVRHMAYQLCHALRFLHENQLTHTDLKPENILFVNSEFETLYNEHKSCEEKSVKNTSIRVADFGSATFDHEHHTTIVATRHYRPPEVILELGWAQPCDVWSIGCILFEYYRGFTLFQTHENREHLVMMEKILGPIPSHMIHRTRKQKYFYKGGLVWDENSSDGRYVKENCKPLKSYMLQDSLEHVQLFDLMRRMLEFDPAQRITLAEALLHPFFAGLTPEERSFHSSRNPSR
T1 sequence (Q00535 whole entry): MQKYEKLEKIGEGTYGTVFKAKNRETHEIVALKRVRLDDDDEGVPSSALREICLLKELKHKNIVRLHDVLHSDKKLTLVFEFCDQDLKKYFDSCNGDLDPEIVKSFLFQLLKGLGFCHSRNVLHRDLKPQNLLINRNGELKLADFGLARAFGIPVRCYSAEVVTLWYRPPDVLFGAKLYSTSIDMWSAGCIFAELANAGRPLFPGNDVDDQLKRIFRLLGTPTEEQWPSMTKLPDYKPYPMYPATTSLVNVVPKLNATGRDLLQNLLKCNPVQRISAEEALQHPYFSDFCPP
T1 sequence (Q15078 99-307 partner limits assumed): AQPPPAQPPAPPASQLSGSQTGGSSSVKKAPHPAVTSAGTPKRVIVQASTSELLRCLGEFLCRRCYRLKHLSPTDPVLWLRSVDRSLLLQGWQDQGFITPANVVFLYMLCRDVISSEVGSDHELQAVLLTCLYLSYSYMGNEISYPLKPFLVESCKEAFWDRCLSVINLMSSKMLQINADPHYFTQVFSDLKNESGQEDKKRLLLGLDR
CLK4, sequence (O35493 whole entry): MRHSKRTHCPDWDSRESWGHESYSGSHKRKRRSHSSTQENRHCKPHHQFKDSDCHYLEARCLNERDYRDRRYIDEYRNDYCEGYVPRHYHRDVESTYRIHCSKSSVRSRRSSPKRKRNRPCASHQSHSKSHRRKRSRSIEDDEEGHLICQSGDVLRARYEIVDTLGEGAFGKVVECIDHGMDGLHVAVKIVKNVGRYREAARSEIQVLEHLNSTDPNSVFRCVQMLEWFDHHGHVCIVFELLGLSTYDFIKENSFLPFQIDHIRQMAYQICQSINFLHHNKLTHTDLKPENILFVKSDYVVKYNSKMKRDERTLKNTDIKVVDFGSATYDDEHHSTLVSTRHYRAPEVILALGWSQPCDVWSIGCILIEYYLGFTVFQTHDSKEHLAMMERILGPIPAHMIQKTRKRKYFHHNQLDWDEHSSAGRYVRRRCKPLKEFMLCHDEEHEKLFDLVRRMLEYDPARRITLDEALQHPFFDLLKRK
LdDYRK3, sequence (E9BS59 entry or part of it): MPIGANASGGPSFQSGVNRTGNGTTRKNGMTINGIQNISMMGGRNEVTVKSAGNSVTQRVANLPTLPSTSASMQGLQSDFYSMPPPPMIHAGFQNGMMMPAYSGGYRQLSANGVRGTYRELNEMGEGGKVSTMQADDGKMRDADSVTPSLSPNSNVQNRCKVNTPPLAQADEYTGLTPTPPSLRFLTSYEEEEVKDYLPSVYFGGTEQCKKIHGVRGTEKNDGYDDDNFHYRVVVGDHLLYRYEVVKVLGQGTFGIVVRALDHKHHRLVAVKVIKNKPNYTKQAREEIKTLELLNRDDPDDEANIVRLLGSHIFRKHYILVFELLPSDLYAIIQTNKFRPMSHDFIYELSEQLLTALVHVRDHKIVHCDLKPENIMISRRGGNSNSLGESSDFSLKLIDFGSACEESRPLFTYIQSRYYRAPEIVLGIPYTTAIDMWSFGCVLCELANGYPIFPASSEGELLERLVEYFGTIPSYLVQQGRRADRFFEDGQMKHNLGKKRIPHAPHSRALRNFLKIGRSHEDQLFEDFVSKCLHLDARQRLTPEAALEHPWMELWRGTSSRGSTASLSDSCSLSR

As to `NC1=NC(=O)/C(=C2\CCNC(=O)c3[nH]c(Br)cc32)N1` [Hymenialdisine, reference compound], the IC50 against CDK1/cyclin B was determined as 5 nM; on TgCLK, 41 nM; on CDK5/p25 it was 6.1 nM; on CDK9/cyclin T, 11 nM; on GSK-3α/β, 3.2 nM; on DYRK1B, 3.2 nM. In addition, the IC50 on DYRK1A worked out at 3.3 nM; against CLK4 it was 2.9 nM; at CpLAMMER, 16 nM; at TcCLK1, 510 nM; at TbCLK1, 530 nM; on LmDYRK2, 380 nM. The IC50 on PfCLK1 is 11 nM; at LdDYRK4, more than 10000 nM; at PfGSK-3 it was 4.1 nM; on GlCLK, 12 nM; on LdDYRK3 it was 21 nM; at LmCLK, 400 nM. For the same compound, the IC50 at LdDYRK1B was 42 nM; against CLK2 it was 4.1 nM; against CK1δ/ε it was 3.7 nM; at CDK2/cyclin A, 11 nM; against CLK3, 5.3 nM.
For the compound `CN1C(=N)N=C(Nc2nc(Cc3ccc4c(c3)OCO4)cn2C)C1=O` [Clathridimine], the IC50 at CDK1/cyclin B is more than 10000 nM; at TgCLK it was more than 10000 nM; on CDK5/p25 (15 μmol/L ATP, read-out: IC50 CDK5/p25), more than 10000 nM; against CDK9/cyclin T, more than 10000 nM; on GSK-3α/β, more than 10000 nM; on DYRK1B, 5600 nM. For the same compound, the IC50 was 5200 nM against DYRK1A; 3500 nM against CLK4; more than 10000 nM at CpLAMMER; more than 10000 nM at TcCLK1; more than 10000 nM on TbCLK1; more than 10000 nM on LmDYRK2. Besides, the IC50 on PfCLK1 was more than 10000 nM; at LdDYRK4 it was more than 10000 nM; at PfGSK-3 it was more than 10000 nM; at GlCLK it was more than 10000 nM; at LdDYRK3, 7900 nM; at LmCLK it was more than 10000 nM. Besides, the IC50 is more than 10000 nM against LdDYRK1B; 6100 nM against CLK2; more than 10000 nM against CK1δ/ε; more than 10000 nM on CDK2/cyclin A; more than 10000 nM at CLK3.

Source of the values: article PMC5666424, “Marine-Derived 2-Aminoimidazolone Alkaloids. Leucettamine B-Related Polyandrocarpamines Inhibit Mammalian and Protozoan DYRK & CLK Kinases” (Marine Drugs, 2017).
